Laboratory results published in paper PMC11649380 (Inorganic chemistry, 2022).
Like-named read-outs stand apart in the source and are kept apart here.

Tests used:
[1] = biological target: T1, mitochondrial calcium uniporter (MCU) (Homo sapiens, UniProt Q8NE86); assay: Mitochondrial Ca2+ uptake inhibition in digitonin-permeabilized HEK293T cells; type: cell-based
T1 sequence (Q8NE86 51-351): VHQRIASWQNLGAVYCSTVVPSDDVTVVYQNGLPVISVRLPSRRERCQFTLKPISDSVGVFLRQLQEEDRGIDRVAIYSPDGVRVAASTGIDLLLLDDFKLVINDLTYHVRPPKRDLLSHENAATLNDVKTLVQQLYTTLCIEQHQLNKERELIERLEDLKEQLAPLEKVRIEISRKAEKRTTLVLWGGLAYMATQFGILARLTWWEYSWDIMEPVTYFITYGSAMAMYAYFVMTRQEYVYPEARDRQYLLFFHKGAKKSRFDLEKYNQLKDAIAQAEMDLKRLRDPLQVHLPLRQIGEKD
T1 sequence (Q9H4I9 48-107 partner limits assumed): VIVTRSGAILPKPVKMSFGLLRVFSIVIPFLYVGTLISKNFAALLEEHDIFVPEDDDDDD

[2] = Aquation kinetics of axial ligand dissociation by 1H NMR spectroscopy; type: physicochemical; settings: for k1 × 10^5 (first aquation rate constant) / k2 × 10^4 (second aquation rate constant): 37 °C, pH 7.4 MOPS-buffered solution, 400 μM complex, 1H NMR; for half-life: mops buffer, pH 7.4
[3] = tested on: HEK293T cells; assay: Cellular uptake by GFAAS in HEK293T cells; type: cell-based; settings: 50 μM for 2 h
[4] = biological target: T2, organic cation transporter 3 (OCT3) (Homo sapiens, UniProt O75751); assay: Role of OCT3 in cellular uptake; type: cell-based; settings: HeLa, 50 μM complex, 1 μM decynium-22, 3 h
T2 sequence (O75751 1-556): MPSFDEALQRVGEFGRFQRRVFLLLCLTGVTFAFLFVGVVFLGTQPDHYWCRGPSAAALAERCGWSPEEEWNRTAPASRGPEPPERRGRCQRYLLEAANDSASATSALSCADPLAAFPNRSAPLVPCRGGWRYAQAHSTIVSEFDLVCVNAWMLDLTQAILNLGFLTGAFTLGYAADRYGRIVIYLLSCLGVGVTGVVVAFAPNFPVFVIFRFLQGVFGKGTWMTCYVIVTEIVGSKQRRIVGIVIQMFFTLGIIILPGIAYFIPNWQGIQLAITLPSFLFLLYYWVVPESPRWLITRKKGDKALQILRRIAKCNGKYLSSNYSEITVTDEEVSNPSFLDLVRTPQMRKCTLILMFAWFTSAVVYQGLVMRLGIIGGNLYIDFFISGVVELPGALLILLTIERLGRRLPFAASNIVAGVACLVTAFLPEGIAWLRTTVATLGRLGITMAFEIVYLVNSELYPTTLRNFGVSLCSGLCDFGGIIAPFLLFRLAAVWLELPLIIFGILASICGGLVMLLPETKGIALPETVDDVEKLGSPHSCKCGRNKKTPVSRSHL

[5] = ref [51], cited from earlier work
[6] = tested on: HeLa cells; assay: Cellular uptake by GFAAS in HeLa cells; type: cell-based; settings: 50 μM for 2 h
[7] = biological target: T1, mitochondrial calcium uniporter (MCU); settings: read-out: IC50 of MCU-mediated mCa2+ uptake inhibition; permeabilized HEK293T cells (1 × 10^7 cells/mL); ref [46]; cited from earlier work

Structure (SMILES) | k1 × 10^5 (first aquation rate constant) [2] | k2 × 10^4 (second aquation rate constant) [2] | half-life [2] | other results
CCCC(=O)[O-].CCCC(=O)[O-].N.N.N.N.N.N.N.N.[N-3].[Ru+4].[Ru+4] [Complex 4, [(CH3(CH2)2CO2)Ru(NH3)4(μ-N)Ru(NH3)4(O2C(CH2)2CH3)](OSO2CF3)3] | 3.2 ± 0.1 s^−1 | 2.8 ± 0.2 s^−1 | 5.9 ± 0.2 h | IC50 [1]: 18.7 ± 0.1 nM
N.N.N.N.N.N.N.N.[Cl][Ru+3].[N-]=[Ru][Cl] [Ru265, [ClRu(NH3)4(μ-N)Ru(NH3)4Cl]Cl3] |  |  |  | cellular uptake (intracellular Ru accumulation) [3]: taken up by both cell lines to a similar extent; mCa2+ uptake at 1 μM ([1]; freshly prepared 1 μM solutions, permeabilized HEK293T cells): complete abrogation of mCa^2+ uptake; cellular uptake in the presence of the OCT3 inhibitor decynium-22 [4]: diminished in the presence of the OCT3 inhibitor; t1/2 (1) (half-life of first aquation step) ([5]; 37 °C, UV-vis spectroscopy): 2.28 min; k1 × 10^5 (first aquation rate constant) ([5]; 37 °C, determined using UV-vis spectroscopy, first aquation step only): 49.2 s^−1; half-life of aquation of axial chloride ligands ([5]; same conditions (pH 7.4, 37 °C)): approximately 2 min; cellular uptake (intracellular Ru accumulation) [6]: taken up by both cell lines to a similar extent
CCC(=O)[O-].CCC(=O)[O-].N.N.N.N.N.N.N.N.[N-3].[Ru+4].[Ru+4] [Complex 3, [(CH3CH2CO2)Ru(NH3)4(μ-N)Ru(NH3)4(O2CCH2CH3)](NO3)3] | 2.8 ± 0.1 s^−1 | 3.3 ± 0.5 s^−1 | 6.9 ± 0.2 h | 
N.N.N.N.N.N.N.N.O=C[O-].O=C[O-].[N-3].[Ru+4].[Ru+4] [Complex 1, [(HCO2)Ru(NH3)4(μ-N)Ru(NH3)4(O2CH)](NO3)3] | 5.9 ± 0.2 s^−1 | 3.6 ± 0.3 s^−1 | 3.3 ± 0.1 h | 
N.N.N.N.N.N.N.N.[Cl][Ru+3].[NH]=[Ru][Cl] [Ru265, [ClRu(NH3)4(μ-N)Ru(NH3)4Cl]Cl3] |  |  |  | IC50 [7]: 8.6 ± 2.2 nM
CC(=O)[O-].CC(=O)[O-].N.N.N.N.N.N.N.N.[N-3].[Ru+4].[Ru+4] [Complex 2, [(CH3CO2)Ru(NH3)4(μ-N)Ru(NH3)4(O2CCH3)](NO3)3] | 2.0 ± 0.5 s^−1 | 3.0 ± 1.2 s^−1 | 9.9 ± 2.4 h | 
